Source: PubChem BioAssay AID1963842 (Molecular Pharmacology Branch, DTP, NCI, 2024)
Where “and” joins values, the source holds several entries; their conditions need not be identical. Equal entries are not always repeated.

Tested on: 677734-321-R-J1-PDC complex spheroid viability
Experiment: Anticancer human tumor 677734-321-R-J1-PDC patient-derived soft tissue sarcoma cell line growth inhibition [POLQ]
Details: for viability, T/C: stronger effect = lower value; for IC50: curve of compound
Protocol: Multicellular complex tumor spheroid response to Polymerase (POL) inhibitors (novobiocin, ART-558, RP6685) in combination with a variety of drugs and investigational agents in selected tumor cell lines
The POL inhibitors (novobiocin, ART-558, and RP6685) were evaluated both individually and in combination with standard of care and investigational anticancer small molecules within a complex spheroid model of solid tumors. . Complex spheroids include a stromal component modeled by human endothelial cells (HUVEC) and fibroblasts modeled by human mesenchymal stem cells (MSCs). The concentration ranges selected for each drug and investigational agent were based upon clinically achievable concentrations if the clinical Cmax of the agent was known.
Compounds. The drugs and investigational agents: novobiocin (NSC847541), ART-558 (NSC835418), RP-6685 (NSC848927), peposertib (NSC802822), ceralasertib (NSC780249), elimusertib (NSC800525), camonsertib (NSC841442), AZD-1390 (NSC803789), olaparib (NSC753686), talazoparib (NSC767125), rucaparib (NSC756644), sotorasib (NSC818433), MRTX-1133 (NSC836407), SN-38 (NSC673596), topotecan (NSC609699), epotoside (NSC141540), doxorubicin (NSC123127), gemcitabine (NSC613327), 5-fluorouracil (NSC19893), paclitaxel (NSC125973), vemurafenib (NSC761431), MSA-2 (NSC828583), SN-011 (NSC837082), adavosertib (NSC754352), prexasertib (NSC758257), carboplatin (NSC241240) and oxaliplatin (NSC266046), were obtained from the National Cancer Institute (NCI) Developmental Therapeutics Program Chemical Repository (21). The FDA-approved anticancer drug set is available from the Developmental Therapeutics Program at https://dtp.cancer.gov/organization/dscb/obtaining/. […] The stock solutions were prepared in dimethyl sulfoxide (DMSO, Sigma-Aldrich, St. Louis, MO, cat. D2650), except for the platinum compounds which were prepared in saline (Quality Biological, Gaithersburg, MD, cat. 114-055-101), at 800-fold the tested concentration and stored at -70 degrees C prior to their use. All drugs and investigational agents were tested over a range starting from a high concentration at or near the clinical Cmax and decreasing in half-log increments. If the clinical Cmax for an agent had not been determined, the highest concentration tested was 10 microM, except for SN-38, which was tested at a high concentration of 1 microM.
Cell Culture. All cells were maintained in an incubator at 37 degrees C and 5% CO2 with 95% humidity. The PDC lines were cultured according to standard operating procedures established by the NCI PDMR (https://pdmr.cancer.gov). Table 3 of the manuscript, lists the cell lines along with the number of the three cell types plated to form the mct-spheroids and media for tumor cell growth. After thawing, all PDC lines, except 997537-175-T-J1-PDC and 415267-285-R-J2-PDC, were cultured in Matrigel-coated flasks prepared with a working solution of 1X Ham's F-12 nutrient mix, without supplementation (Thermo Fisher Scientific, cat. 11765054), 100 U/mL penicillin-streptomycin (Thermo Fisher Scientific, cat. 15140122), and 2.5% Matrigel (Corning Inc., Corning, NY, cat. 354248) for the first three passages. The two PDC lines 997537-175-T-J1-PDC and 415267-285-R-J2-PDC were cultured on uncoated flasks. The 857933-349-R-J2-PDC line was cultured in 6C/Colon 1B media containing advanced DMEM/F-12 (Thermo Fisher Scientific, cat. 12634028), 10 mM HEPES (Thermo Fisher Scientific, cat. 15630080), 1X GlutaMAX supplement (Thermo Fisher Scientific, cat. 35050061), 0.1 mg/mL primocin (InvivoGen, San Diego, CA, cat. ant-pm-2), 10% defined fetal bovine serum, heat inactivated (HyClone Laboratories Inc., Logan, UT, cat. SH30070.03HI), 50% L-WRN conditioned media (ATCC, cat. CRL-3276), 1.25 mM N-Acetyl-L-cysteine (Sigma-Aldrich, cat. A9165), 10 mM nicotinamide (Sigma-Aldrich, cat. N0636), 1X B-27 supplement (Thermo Fisher Scientific, cat. 17504044), 1X N-2 supplement (Thermo Fisher Scientific, cat. […]
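Note: spheroids exposed to compounds for one week.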
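Throughout, for viability, T/C: 100% = vehicle DMSO treated spheroids.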

| Structure (SMILES) | viability, T/C (compound 0.0316 µM) | viability, T/C (compound 0.1 µM) | viability, T/C (compound 0.316 µM) | viability, T/C (compound 1 µM) | viability, T/C (compound 3.16 µM) | viability, T/C (compound 10 µM) | IC50 | viability, T/C (compound 0.00316 µM) | viability, T/C (compound 0.01 µM) | viability, T/C (compound 0.00949 µM) | viability, T/C (compound 0.03 µM) | viability, T/C (compound 0.0949 µM) | viability, T/C (compound 0.3 µM) | viability, T/C (compound 0.949 µM) | viability, T/C (compound 3 µM) | viability, T/C (compound 0.000316 µM) | viability, T/C (compound 0.001 µM) |
| --- | --- | --- | --- | --- | --- | --- | --- | --- | --- | --- | --- | --- | --- | --- | --- | --- | --- |
| C#Cc1c(F)ccc2cc(O)cc(-c3ncc4c(N5CC6CCC(C5)N6)nc(OCC56CCCN5CC(F)C6)nc4c3F)c12 (centres undefined) | 109% and 110% and 105% | 105% and 104% and 101% | 99.2% and 115% and 96.7% | 105% and 96.8% and 101% | 107% and 113% and 97.8% | 102% (2×) and 80.7% | > 10000 nM | – | – | – | – | – | – | – | – | – | – |
| C=CC(=O)N1CCN(c2nc(=O)n(-c3c(C)ccnc3C(C)C)c3nc(-c4c(O)cccc4F)c(F)cc23)C(C)C1 (centres undefined) | 100% and 109% and 106% | 95.8% and 94.2% and 95.4% | 117% and 96.4% and 105% | 101% and 104% and 95.6% | 96.5% and 93.2% and 101% | 89% and 64% and 94.1% | > 10000 nM | – | – | – | – | – | – | – | – | – | – |
| C=CCn1c(=O)c2cnc(Nc3ccc(N4CCN(C)CC4)cc3)nc2n1-c1cccc(C(C)(C)O)n1 | 105% and 97.8% and 107% | 103% and 90.1% and 87.8% | 103% and 74.6% and 85.4% | 64.8% and 36% and 39% | – | – | > 1000 nM and 657 nM and 753 nM | 109% and 100% and 106% | 115% and 89.1% and 99% | – | – | – | – | – | – | – | – |
| CC(=O)O[C@H]1C(=O)[C@@]2(C)[C@H]([C@H](OC(=O)c3ccccc3)[C@]3(O)C[C@H](OC(=O)[C@H](O)[C@@H](NC(=O)c4ccccc4)c4ccccc4)C(C)=C1C3(C)C)[C@]1(OC(C)=O)CO[C@@H]1C[C@@H]2O | – | – | – | – | – | – | < 9.49 nM | – | – | 22% and 35.2% and 37.8% | 13.4% and 15.2% and 19.2% | 12.7% and 15.9% and 17.6% | 11.9% and 12.5% and 14.8% | 14.2% and 12.4% and 14.5% | 13.1% and 16.4% (2×) | – | – |
| CC(C)n1c(=O)n(C)c2cnc3cc(F)c(-c4ccc(OCCCN5CCCCC5)nc4)cc3c21 | 104% and 96.1% and 15.7% | 97.3% and 81.5% and 19.8% | 111% and 83.6% and 12.2% | 99.2% and 101% and 14.6% | 101% and 85.8% and 17.6% | 91% and 102% and 18.9% | – | – | – | – | – | – | – | – | – | – | – |
| CC1COCCN1c1cc(-c2ccnn2C)c2ccnc(-c3ccn[nH]3)c2n1 (centres undefined) | 91.4% and 85.5% and 69.4% | 60.5% and 56.2% and 22.1% | – | 24.4% and 21.4% and 10.8% | 19.7% and 6.39% and 9.44% | 18.5% and 17.1% and 9.19% | 164 nM and 124 nM and 50.6 nM | – | – | – | – | – | – | – | – | – | – |
| CC1COCCN1c1cc(C2(O)CC3CCC(C2)O3)c2cnn(-c3ccn[nH]3)c2n1 (centres undefined) | 81.7% and 83.6% and 51% | 51.1% and 44.5% and 17.5% | 25.6% and 22.2% and 9.65% | 20.1% and 15.7% and 9.53% | 17.1% and 14.3% and 7.61% | 17.9% and 14.2% and 4.79% | 105 nM and 85.1 nM and 32.4 nM | – | – | – | – | – | – | – | – | – | – |
| CC1COCCN1c1cc(C2(S(C)(=N)=O)CC2)nc(-c2ccnc3[nH]ccc23)n1 (centres undefined) | 109% and 103% and 113% | 97.4% and 99.3% and 104% | 92% and 80.2% and 107% | 86.7% and 51.1% and 86.6% | 60.8% and 28.3% and 55.8% | 21.6% and 9.59% and 22.4% | 4390 nM and 1130 nM and 3830 nM | – | – | – | – | – | – | – | – | – | – |
| CCCS(=O)(=O)Nc1ccc(F)c(C(=O)c2c[nH]c3ncc(-c4ccc(Cl)cc4)cc23)c1F | 109% and 98.3% and 104% | 98% (2×) and 103% | 90.9% and 101% and 108% | 97.4% and 115% and 111% | 71.8% and 98.3% and 112% | 4.28% and 6.33% and 14.5% | 4610 nM and 5800 nM and 6450 nM | – | – | – | – | – | – | – | – | – | – |
| CC[C@@]1(O)C(=O)OCc2c1cc1n(c2=O)Cc2cc3c(CN(C)C)c(O)ccc3nc2-1 | 46.4% and 25.9% and 36.8% | 18% and 13.8% and 15% | – | – | – | – | 29.2 nM and 19.4 nM and 24.8 nM | 105% and 100% and 109% | 98.2% and 82.6% and 99.5% | – | – | – | – | – | – | 104% (2×) and 105% | 111% and 90.9% and 101% |
| CCc1c2c(nc3ccc(O)cc13)-c1cc3c(c(=O)n1C2)COC(=O)[C@]3(O)CC | 5.51% and 5.68% and 5.45% | 3.41% and 4.83% and 3.66% | 1.89% and 3.99% | 1.68% and 1.7% and 1.87% | – | – | < 3.16 nM | 29.6% and 21.7% and 23.7% | 13.3% and 10.5% and 14.2% | – | – | – | – | – | – | – | – |
| CCc1cc2c(N3CCc4c(cc(Cn5ccnc5)cc4-c4cn(C)nc4C(F)(F)F)C3=O)cc(C)nc2c(OC)n1 | 108% and 84.9% and 95.3% | 104% and 93.7% and 115% | 100% and 83.8% and 86.7% | 85.4% and 79.7% and 96.4% | 76.5% and 55.1% and 70.1% | 56.7% and 37.7% and 41.4% | > 10000 nM and 4460 nM and 7110 nM | – | – | – | – | – | – | – | – | – | – |
| CCc1cc2c(N3CCc4c(cc(Cn5ccnc5)cc4-c4cn(C)nc4C(F)(F)F)C3=O)ccnc2c(OC)n1 | 108% and 98.5% and 105% | 109% (2×) and 102% | 98% and 85.5% and 106% | 100% and 93.7% and 73.7% | 92.4% and 69% and 64.4% | 63.6% and 50.2% and 39.2% | > 10000 nM and 5580 nM | – | – | – | – | – | – | – | – | – | – |
